Results published in publication PMC7046733, “Plantaricin NC8 αβ exerts potent antimicrobial activity against Staphylococcus spp. and enhances the effects of antibiotics” (Scientific Reports, 2020).
Where two headings read alike, the source gives them in different places. Residues, ends and D or L forms follow the SMILES beside them.

Tests used:
[1] = test system: S. epidermidis 154; experiment: Broth microdilution MIC/MBC; type: cell-based
Procedure: (§1) The broth microdilution method was used to determine minimal inhibitory concentration (MIC) and minimal bactericidal concentration (MBC). Briefly, two-fold serial dilutions of the peptides were used and the final concentrations ranged between 0.097–50 µM. The final concentrations of the antibiotics vancomycin and teicoplanin ranged between 0.097–50 µg/ml, while rifampicin ranged between 0.0019–1 µg/ml and gentamicin 0.0097–5 µg/ml. The inhibitory and bactericidal effects of peptides together with antibiotics were studied by using the same concentration series of antibiotics with constant, sub-MIC concentrations, of the peptides in all the wells (see figure legends). The plates were then incubated at 37 °C for 20 h. […] MBC was determined as the lowest concentration where no growth of bacterial colonies (10 µl) was observed on blood-agar plates. All experiments were repeated at least three times. The combined effect of teicoplanin and PLNC8 αβ against S. epidermidis ATCC 12228 was evaluated by the microdilution checkerboard method. Briefly, two-fold serial dilutions of the antibiotics and PLNC8 αβ were prepared together in microtiter plates, either alone or in combination. The MIC values were determined visually and spectroscopically, and the fractional inhibitory concentration (ΣFIC) was calculated by the equation (MIC of PLNC8 αβ in combination/MIC of PLNC8 αβ alone) + (MIC of antibiotic in combination/MIC of antibiotic alone). Synergy was defined as ΣFIC ≤ 0.5, additive when 0.5 <ΣFIC ≤1, indifferent when 1 <ΣFIC <2 and antagonistic when ΣFIC ≥ 2.

[2] = test system: S. epidermidis ATCC 12228; experiment: microbe, parasite or virus in culture
Procedure: as §1

[3] = test system: Trypsin; experiment: Proteolytic degradation; type: in vitro ADME; conditions: peptide 100 µM, trypsin 0.125 mg/ml (~5 µM), ammonium bicarbonate buffer 50 mM pH 8.5, 16 h, 37 °C, MALDI-ToF MS
Description: Samples were resuspended in MQ-water containing 0.1% TFA, desalted using ZipTip-C18 columns (Millipore) and analyzed using MALDI-ToF with α-cyano-4-hydroxycinnamic acid as matrix.

[4] = test system: S. epidermidis 157 (hGISE); experiment: Broth microdilution MIC/MBC; type: cell-based
Procedure: as §1, with “legends).” for “legends). The plates were then incubated at 37 °C for 20 h.”

[5] = test system: S. aureus CCUG 35601 (MRSA); experiment: Broth microdilution MIC/MBC; type: cell-based
Procedure: as §1, with “legends).” for “legends). The plates were then incubated at 37 °C for 20 h.”

[6] = test system: S. epidermidis 126 (hGISE); experiment: Broth microdilution MIC/MBC; type: cell-based
Procedure: as §1, with “legends).” for “legends). The plates were then incubated at 37 °C for 20 h.”

[7] = test system: human erythrocytes; experiment: Haemolysis; type: cell-based; conditions: isolated human erythrocytes, 1 h, 37 °C, n=3
Procedure: The haemolytic activity of the peptides was investigated by collecting blood from healthy volunteers in heparinized vacutainers. Briefly, the blood was centrifuged at 600 × g for 5 min and the erythrocyte pellet was washed three times in PBS. The cells were then suspended in PBS and added to 96-well plates (15% erythrocyte suspension/well), containing the peptides with two-fold serial dilution. The plates were incubated for 1 h at 37 °C followed by centrifugation for 5 min at 900 × g and measurement of the supernatants at 540 nm. Haemolytic activity (%) was calculated by subtracting the negative control from all values and normalization against the positive control (0.5% Triton X-100), that was set to 100%. All experiments, each in duplicate, were repeated three times.

[8] = Staphylococcus epidermidis, 154, 20 h, antibiotic alone, 20 h, read-out: MBC
[9] = Staphylococcus epidermidis, ATCC12228, 20 h
[10] = Staphylococcus epidermidis, 24 h
[11] = Staphylococcus epidermidis, 154, 20 h
[12] = S. epidermidis 157, antibiotic alone, after 24 h
[13] = MRSA, antibiotic alone, after 24 h
[14] = S. epidermidis 126, antibiotic alone, after 24 h
[15] = antibiotic alone, broth microdilution, 37 °C, 20 h

CNC(C)C1CCC(N)C(OC2C(N)CC(N)C(OC3OCC(C)(O)C(NC)C3O)C2O)O1 (stereo not drawn) [Gentamicin, gentamicin]
MBC [1, 8]: > 100 µg/mL | MIC ([1]; Staphylococcus epidermidis, 154, 20 h, antibiotic alone, 20 h, read-out: MIC): > 100 µg/mL | MBC [2, 9]: 0.31 µg/mL | MIC [2, 9]: 0.31 µg/mL

CC(C)C[C@H](NC(=O)[C@H](Cc1ccc(O)cc1)NC(=O)[C@H](Cc1ccc(O)cc1)NC(=O)CNC(=O)[C@H](Cc1c[nH]c2ccccc12)NC(=O)[C@H](CO)NC(=O)[C@H](CO)NC(=O)[C@H](Cc1c[nH]c2ccccc12)NC(=O)[C@H](CC(C)C)NC(=O)[C@H](CCCCN)NC(=O)[C@@H](NC(=O)[C@@H](NC(=O)[C@H](CC(C)C)NC(=O)[C@@H](N)CC(=O)O)[C@@H](C)O)[C@@H](C)O)C(=O)NCC(=O)N[C@@H](CCCCN)C(=O)N[C@@H](CCCCN)C(=O)N[C@@H](C)C(=O)N[C@@H](CCCNC(=N)N)C(=O)N[C@@H](Cc1c[nH]c2ccccc12)C(=O)N[C@@H](CC(N)=O)C(=O)N[C@@H](CC(C)C)C(=O)N[C@@H](CCCCN)C(=O)N[C@@H](Cc1c[nH]cn1)C(=O)N1CCC[C@H]1C(=O)N[C@@H](Cc1ccc(O)cc1)C(=O)N[C@H](C(=O)N[C@@H](CCC(N)=O)C(=O)N[C@@H](Cc1ccccc1)C(=O)O)C(C)C [L-PLNC8 α] (H-DLTTKLWSSWGYYLGKKARWNLKHPYVQF-OH)
degradation by trypsin [3]: efficiently degraded by trypsin

CO[C@H]1/C=C/O[C@@]2(C)Oc3c(C)c(O)c4c(O)c(c(/C=N/N5CCN(C)CC5)c(O)c4c3C2=O)NC(=O)/C(C)=C\C=C\[C@H](C)[C@H](O)[C@@H](C)[C@@H](O)[C@@H](C)[C@H](OC(C)=O)[C@@H]1C [Rifampicin, rifampicin]
MBC [1, 8]: 0.05 µg/mL | MBC ([1]; antibiotic alone, 20 h): 0.063 µg/mL | MBC [2, 9]: 0.063 µg/mL | MIC [2, 9]: 0.063 µg/mL

CN[C@H](CC(C)C)C(=O)N[C@H]1C(=O)N[C@@H](CC(N)=O)C(=O)N[C@H]2C(=O)N[C@H]3C(=O)N[C@H](C(=O)N[C@H](C(=O)O)c4cc(O)cc(O)c4-c4cc3ccc4O)[C@H](O)c3ccc(c(Cl)c3)Oc3cc2cc(c3O[C@@H]2O[C@H](CO)[C@@H](O)[C@H](O)[C@H]2O[C@H]2C[C@](C)(N)[C@H](O)[C@H](C)O2)Oc2ccc(cc2Cl)[C@H]1O [Vancomycin, vancomycin]
MBC [4, 10]: 6.25 µg/mL | MIC [4, 10]: 6.25 µg/mL | MBC ([5]; Staphylococcus aureus, 24 h): 3.1 µg/mL | MBC [6, 10]: 3.1 µg/mL | MIC [6, 10]: 3.1 µg/mL | MBC [1, 11]: 3.1 µg/mL | MIC [1, 11]: 1.5 µg/mL | MBC [2, 9]: 3.1 µg/mL | MIC [2, 9]: 1.5 µg/mL

CC(C)C[C@H](NC(=O)[C@H](Cc1ccc(O)cc1)NC(=O)[C@H](Cc1ccc(O)cc1)NC(=O)CNC(=O)[C@H](Cc1c[nH]c2ccccc12)NC(=O)[C@H](CO)NC(=O)[C@H](CO)NC(=O)[C@H](Cc1c[nH]c2ccccc12)NC(=O)[C@H](CC(C)C)NC(=O)[C@H](CCCCN)NC(=O)[C@@H](NC(=O)[C@@H](NC(=O)[C@H](CC(C)C)NC(=O)[C@@H](N)CC(=O)O)[C@@H](C)O)[C@@H](C)O)C(=O)NCC(=O)O [α1-15] (H-DLTTKLWSSWGYYLG-OH)
cytotoxic at relevant concentrations (<50 µM), determined by haemolytic activity [7]: nor the truncated α1–22, α1–15, β7–34, β7–20 and β1–20 were cytotoxic

CC(C)C[C@H](NC(=O)[C@H](CC(N)=O)NC(=O)[C@H](Cc1c[nH]c2ccccc12)NC(=O)[C@H](CCCNC(=N)N)NC(=O)[C@H](C)NC(=O)[C@H](CCCCN)NC(=O)[C@H](CCCCN)NC(=O)CNC(=O)[C@H](CC(C)C)NC(=O)[C@H](Cc1ccc(O)cc1)NC(=O)[C@H](Cc1ccc(O)cc1)NC(=O)CNC(=O)[C@H](Cc1c[nH]c2ccccc12)NC(=O)[C@H](CO)NC(=O)[C@H](CO)NC(=O)[C@H](Cc1c[nH]c2ccccc12)NC(=O)[C@H](CC(C)C)NC(=O)[C@H](CCCCN)NC(=O)[C@@H](NC(=O)[C@@H](NC(=O)[C@H](CC(C)C)NC(=O)[C@@H](N)CC(=O)O)[C@@H](C)O)[C@@H](C)O)C(=O)O [α1-22] (H-DLTTKLWSSWGYYLGKKARWNL-OH)
cytotoxic at relevant concentrations (<50 µM), determined by haemolytic activity [7]: nor the truncated α1–22, α1–15, β7–34, β7–20 and β1–20 were cytotoxic

CC[C@H](C)[C@H](NC(=O)CNC(=O)[C@H](CC(C)C)NC(=O)[C@@H](NC(=O)[C@H](Cc1ccc(O)cc1)NC(=O)[C@@H](NC(=O)[C@H](CO)NC(=O)[C@@H](NC(=O)[C@@H]1CCCN1C(=O)[C@@H](NC(=O)[C@@H](N)CO)C(C)C)[C@@H](C)O)C(C)C)[C@@H](C)O)C(=O)N[C@@H](CCCCN)C(=O)N[C@H](C(=O)N[C@@H](CC(C)C)C(=O)N[C@@H](Cc1c[nH]c2ccccc12)C(=O)N[C@@H](CO)C(=O)N[C@@H](C)C(=O)N[C@@H](Cc1ccc(O)cc1)C(=O)N[C@@H](CCCCN)C(=O)N[C@@H](Cc1c[nH]cn1)C(=O)O)[C@@H](C)CC [β1-20] (H-SVPTSVYTLGIKILWSAYKH-OH)
cytotoxic at relevant concentrations (<50 µM), determined by haemolytic activity [7]: nor the truncated α1–22, α1–15, β7–34, β7–20 and β1–20 were cytotoxic

CC[C@H](C)[C@H](NC(=O)CNC(=O)[C@H](CC(C)C)NC(=O)[C@@H](NC(=O)[C@@H](N)Cc1ccc(O)cc1)[C@@H](C)O)C(=O)N[C@@H](CCCCN)C(=O)N[C@H](C(=O)N[C@@H](CC(C)C)C(=O)N[C@@H](Cc1c[nH]c2ccccc12)C(=O)N[C@@H](CO)C(=O)N[C@@H](C)C(=O)N[C@@H](Cc1ccc(O)cc1)C(=O)N[C@@H](CCCCN)C(=O)N[C@@H](Cc1c[nH]cn1)C(=O)O)[C@@H](C)CC [β7-20] (H-YTLGIKILWSAYKH-OH)
cytotoxic at relevant concentrations (<50 µM), determined by haemolytic activity [7]: nor the truncated α1–22, α1–15, β7–34, β7–20 and β1–20 were cytotoxic

CC[C@H](C)[C@H](NC(=O)CNC(=O)[C@H](CC(C)C)NC(=O)[C@@H](NC(=O)[C@@H](N)Cc1ccc(O)cc1)[C@@H](C)O)C(=O)N[C@@H](CCCCN)C(=O)N[C@H](C(=O)N[C@@H](CC(C)C)C(=O)N[C@@H](Cc1c[nH]c2ccccc12)C(=O)N[C@@H](CO)C(=O)N[C@@H](C)C(=O)N[C@@H](Cc1ccc(O)cc1)C(=O)N[C@@H](CCCCN)C(=O)N[C@@H](Cc1c[nH]cn1)C(=O)N[C@@H](CCCNC(=N)N)C(=O)N[C@@H](CCCCN)C(=O)N[C@H](C(=O)N[C@H](C(=O)N[C@@H](CCC(=O)O)C(=O)N[C@@H](CCCCN)C(=O)N[C@@H](CO)C(=O)N[C@@H](Cc1ccccc1)C(=O)N[C@@H](CC(N)=O)C(=O)N[C@@H](CCCCN)C(=O)NCC(=O)N[C@@H](Cc1ccccc1)C(=O)N[C@@H](Cc1ccc(O)cc1)C(=O)N[C@@H](Cc1c[nH]cn1)C(=O)O)[C@@H](C)CC)[C@@H](C)O)[C@@H](C)CC [β7-34] (H-YTLGIKILWSAYKHRKTIEKSFNKGFYH-OH)
cytotoxic at relevant concentrations (<50 µM), determined by haemolytic activity [7]: nor the truncated α1–22, α1–15, β7–34, β7–20 and β1–20 were cytotoxic

teicoplanin
MBC [4, 12]: 25 µg/mL | MIC [4, 12]: 12.5 µg/mL | MBC [5, 13]: 3.1 µg/mL | MIC [5, 13]: 0.78 µg/mL | MBC [6, 14]: 6.25 µg/mL | MIC [6, 14]: 3.1 µg/mL | MBC ([1]; antibiotic alone, 20 h): 1.5 µg/mL | MIC ([1]; antibiotic alone, 20 h): 1.5 µg/mL | MBC [2, 15]: 1.5 µg/mL | MIC [2, 15]: 1.5 µg/mL
